Experimental data reported in patent US6903135B2, “Methods and products related to 16-HETE analogs” (Board of Regents, The University of Texas System, priority 1998, dated 2005).
Marks after values point to notes of the source that are not given here.

What was measured:
Format in all cases: cell-based
[1] = test system: neutrophils in diluted human blood; experiment: fMLP-induced neutrophil aggregation in diluted human blood; conditions: for Aggregation (percent of inhibition from HETE untreated cells): 1 µM compound, N = 4; for inhibition of neutrophil aggregation: no concentration given
Procedure: (§1) Stimulated neutrophil aggregation and oxygen free radical release were examined in whole human blood using a whole-blood aggregometer-chemiluminometer (Chronolog, Haverton, Pa.) as described in Bednar et al. J. Thromb. Thrombol. 1, 179-185 (1995). Briefly, blood samples containing heparin (1 U/ml) as the anticoagulant were diluted in HBSS in proportion 1 to 9. Diluted blood aliquots (1 ml) were stirred (400 rpm) in a prewarmed (37° C.) siliconized cuvette containing cytochalasin b (5 μg/ml) and luminol (in 8 μl DMSO, 500 μM final concentration) and the test HETE (concentration 0.01 to 10 μM) for 10 min. Neutrophils were stimulated with a submaximal dose of fMLP (5×10^−7M final concentration). The aggregation and chemiluminescence were simultaneously measured as changes of impedance and luminescence, respectively. The fMLP-induced chemiluminescence was calculated as the peak height of the reaction.
The methods were performed as described above in Example 3.

[2] = test system: thrombin-stimulated human neutrophils; experiment: Thrombin-stimulated neutrophil adhesion to gelatin matrix
Procedure: (§2) Venous blood (60-70 ml) was collected from four healthy, normal volunteers into syringes containing heparin (1 U/ml). Polymorphonuclear leukocytes (PMNs) were isolated by a histopaque density gradient technique as previously described in Liu et al., Adhesion, Its role in Inflammatory Disease, Freeman and Co., New York, 1992, pp 189-192. Briefly, blood aliquots (6 ml) were layered over two layers (3 ml) of histopaque 1077 and 1119 in a conical centrifuge tube. The sample was then subjected to centrifugation at 100×g for 30 minutes at room temperature and the top layer, containing the neutrophils, was carefully collected. Hypotonic lysis was used to separate out the red blood cells. The neutrophils were then isolated from the sample by centrifugation (2000×g) and suspended in Hanks balanced salt solution (HBSS) containing 1 mM Ca^+ and 0.8 mM Mg^+ for studies involving arachidonic acid metabolism, and in M199 (with 1% BSA) for neutrophil adhesion assays. Total cells were counted using a hemocytometer and leukocytes were counted after staining with Wright-Giemsa stain. For each experiment, the cell preparations used contain ≧97% neutrophils, having ≧95% viability as determined by a trypan blue exclusion assay.
Isolated neutrophils were resuspended in M199 containing 1% BSA with a final concentration of 3×10^6 cells per ml. Cells suspensions (1 ml) were incubated with or without a test compound, 16(S)-HETE, 16(R)-HETE, or 20-HETE (concentrations 0.01 to 10 μM) for 10 min and then placed into gelatin-coated wells and further incubated for 20 min at 37° C. The wells were washed three times with 0.5 ml of solution M199 to remove non-adherent cells. The adherent cells were then removed by addition of 0.4 ml of 0.25% trypsin-EDTA in 0.1 M PBS to the gelatin-coated wells and incubation for 10 min at 37° C. The incubates were transferred and the wells were washed with 0.1 ml of M199 solution. The amount of cells in combined solutions was counted. […] The inhibition of adhesion was expressed as percent of cells remaining in suspension (non-adherent) relative to control. […]

platelets [3] = experiment: ATP release from ADP-stimulated platelets; conditions: 1 μM, ADP 5 μM, n=3, mean±sem
Source text: (§3) Platelet aggregation was examined in diluted whole blood using a Chronolog whole blood aggregometer (Havertown, Pa.) as previously described (Bednar, M. M.; Dooley, R. H.; Zamani, M.; Howard, D. B.; and Gross, C. E. Neutrophil and platelet activity and quantification following delayed t-PA therapy in a rabbit model of thromboembolic stroke. J. Thromb. Thrombol. 1:179-185 (1995). Briefly, whole blood was collected in 3.8% sodium citrate (9:1, v/v) and was subsequently diluted 50:50 with normal saline. Aggregation was assessed over a 6 minute interval following addition of a submaximal concentration of adenosine diphosphate (ADP, 5 μM: Sigma Corporation, St. Louis, Mo.). Aggregation was then repeated following a ten minute incubation with either 1 μM or 16(R)-HETE or 16(S)-HETE and expressed as the change in impedance as a percentage of the baseline value. Adenosine triphosphate (ATP) release was simultaneously measured from ADP-stimulated platelets in the Chronolog whole blood aggregometer using the Chrono-Lume luminescent agent (firefly luciferin-luciferase). Samples were compared to chemiluminescence obtained from ATP standards following the addition of luciferin-luciferase.

platelets [4] = experiment: ADP-induced platelet aggregation in diluted whole blood; conditions: 1 μM, ten minute incubation, ADP 5 μM, n=3, mean±sem
Source text: as §3

[5] = test system: neutrophils in diluted human blood; experiment: fMLP-stimulated oxygen free radical release (luminol chemiluminescence) in diluted human blood; conditions: for OFR Release (percent of inhibition from HETE untreated cells): 1 mM [sic] HETE, fMLP 5×10^−7 M, chemiluminescence, N = 3 to 4
Procedure: as §1, with “Diluted blood aliquots (1 ml) were stirred (400 rpm) in a prewarmed (37° C.) siliconized cuvette containing cytochalasin b (5 μg/ml) and luminol (in 8 μl DMSO, 500 μM final concentration) and the test HETE (concentration 0.01 to 10 μM) for 10 min.” left out

basal human neutrophils = experiment: Basal neutrophil adhesion to gelatin matrix
Procedure: as §2
Isolated neutrophils were resuspended in M199 containing 1% BSA with a final concentration of 3×10^6 cells per ml. Cells suspensions (1 ml) were incubated with or without a test compound, 16(S)-HETE, 16(R)-HETE, or 20-HETE (concentrations 0.01 to 10 μM) for 10 min and then placed into gelatin-coated wells and further incubated for 20 min at 37° C. The wells were washed three times with 0.5 ml of solution M199 to remove non-adherent cells. The adherent cells were then removed by addition of 0.4 ml of 0.25% trypsin-EDTA in 0.1 M PBS to the gelatin-coated wells and incubation for 10 min at 37° C. The incubates were transferred and the wells were washed with 0.1 ml of M199 solution. The amount of cells in combined solutions was counted. In some experiments, the adhesion of neutrophils was stimulated by addition of 1 U/ml of thrombin to neutrophil suspension immediately prior to the transfer of cells to the wells. Experiments were performed in duplicates for each concentration of HETE. The inhibition of adhesion was expressed as percent of cells remaining in suspension (non-adherent) relative to control. The range of adherent PMNs in control incubations was 6 to 23%. This was increased two-fold in the presence of thrombin.

[6] = test system: LTB4 synthesis in neutrophils; experiment: Neutrophil LTB4 production stimulated by fMLP; conditions: 1 μM, 10 min preincubation, fMLP 5×10^−7 M; fMLP alone 92.8±27.1, unstimulated 49.9±24.2; n=4
Procedure: 16(R)-HETE (0.01-1.0 μM) was preincubated for 10 minutes with the neutrophil suspension (3×10^6/ml) prior to the addition of formyl-methionyl-leucyl-phenylalanine (fMLP). Samples were then incubated for an additional 10 minutes with 5×10^−7M fMLP. All incubations took place at 37° C. Plasma samples for the measurement of LTB4 were collected by centrifugation of the whole blood samples at 1200 rpm for 15 minutes. Samples were stored at […] until analyzed. The plasma was then acidified to pH3 with 1M Hcl. The plasma was then placed on C2 reverse phase columns (Amprep for Amersham Corp., Arlington Heights, Ill.) to extract LTB4. LTB4 was then measured using the Biotrak LTB4 enzyme immunoassay system (Amersham Corp., Arlington Heights, Ill.). All standards and samples were performed in duplicate. Following incubation, all samples were read at 450 nm and the LTB4 concentration in each sample was determined following the generation of a standard curve. LTB4 concentration was expressed as picograms LTB4 per 1000 neutrophils.

[7] = test system: neutrophils in diluted human blood; experiment: fMLP-induced neutrophil aggregation in diluted human blood; conditions: 1 mM [sic] HETE, fMLP 5×10^−7 M, N = 3 to 4
human neutrophils = experiment: Agonist activity on human neutrophils; conditions: concentrations ≦20 μM
[8] = concentrations of one micromolar, four observations per compound

## 5,6,14,15-Dehydro-8,9,11,12-tetrahydro-16(R)-HETE
[1]
  Aggregation (percent of inhibition from HETE untreated cells): 79.4 +/− 12.2%

## CCCC[C@@H](O)CCCCCCCCCCCCCCC(=O)O [5,6,8,9,11,12,14,15-octahydro-16(R)-HETE]
[1]
  Aggregation (percent of inhibition from HETE untreated cells): 122.8 +/− 15.4%

## CCCC[C@@H](O)/C=C\CCCCCCC/C=C\CCCC(=O)O [8,9,11,12-tetrahydro-16(R)-HETE]
[1]
  Aggregation (percent of inhibition from HETE untreated cells): 71.1 +/− 10.3* percent

## CCCCC[C@H](O)/C=C/C=C\C/C=C\C/C=C\CCCC(=O)O [15-HETE]
[1]
  inhibition of neutrophil aggregation: neither 20-HETE nor 15-HETE inhibited

## CCCCC(O)/C=C\C/C=C\C/C=C\C/C=C\CCCC(=O)NS(C)(=O)=O [16(R)-HETE sulfonimide, N-methylsulfonyl-16-hydroxyeicosa-5,8,11,14-(Z)-tetraenamide]
[1]
  Aggregation (percent of inhibition from HETE untreated cells): 47.6 +/− 20.5* percent
[1]; [8]
  inhibition of fMLP-induced neutrophil aggregation: slightly lower activity than 16-HETE (R)

## CCCC[C@@H](O)C=CCC=CCC=CCC=CCCCC(=O)O [16(R)-HETE, 16(R)-hydroxy-5,8,11,14-eicosatetraenoic acid]
[2]; Homo sapiens, Neutrophil, 1 μM, thrombin 1 U/ml, 3×10^6 cells/ml
  inhibition at 1 µM: 50 ± 4%
Platelets [3]
  ATP release from ADP-stimulated platelets, % of the control sample: 99.3±0.7%
Platelets [4]
  ADP-induced platelet aggregation, % of the control value: 85.9±21.4%
[5]
  OFR Release (percent of inhibition from HETE untreated cells): 8.9 ± 5.1%
Basal human neutrophils; Homo sapiens, Neutrophil, 1 μM, 10 min preincubation, unstimulated neutrophils, gelatin matrix
  inhibition at 1 µM: 73 ± 11%
Basal human neutrophils; preincubation with 10 μM
  inhibition of neutrophil adhesion to gelatin: completely inhibited
[6]
  LTB4 synthesis: 17.0±3.2 pg/1000 neutrophils
[1]
  Aggregation (percent of inhibition from HETE untreated cells): 42.0 ± 11.0%
[1]; Homo sapiens, Neutrophil, fMLP 5×10^−7 M, read-out: IC50, inhibition of fMLP-induced neutrophil aggregation
  IC50: 1200 nM
[1]; [8]
  inhibition of fMLP-induced neutrophil aggregation: inhibited
[7]
  Aggregation (percent of inhibition from HETE untreated cells): 42.0 ± 11.0%

## CCCC[C@H](O)/C=C\C/C=C\C/C=C\C/C=C\CCCC(=O)O [16(S)-HETE]
[2]; 1 μM, thrombin 1 U/ml, 3×10^6 cells/ml
  inhibition of thrombin-stimulated neutrophil adhesion: 40±14%
Platelets [3]
  ATP release from ADP-stimulated platelets, % of the control sample: 108.0±6.8%
Platelets [4]
  ADP-induced platelet aggregation, % of the control value: 101.3±14.0%
[5]
  OFR Release (percent of inhibition from HETE untreated cells): 5.6 ± 16.7%
Basal human neutrophils; 1 μM, 10 min preincubation, unstimulated neutrophils, gelatin matrix
  inhibition of basal neutrophil adhesion: 39±8%
[1]; concentrations of ≦10 μM
  inhibition of fMLP-induced neutrophil aggregation: not active
[7]
  Aggregation (percent of inhibition from HETE untreated cells): 7.0 ± 3.5%

## O=C(O)CCC/C=C\C/C=C\C/C=C\C/C=C\CCCCCO [20-HETE]
[2]; concentrations ≦10 μM
  inhibition of neutrophil adhesion, stimulated conditions: did not inhibit
[5]
  OFR Release (percent of inhibition from HETE untreated cells): 3.9 ± 13.4%
[5]; concentrations up to 1 μM
  activity in assay of luminol chemiluminescence: no activity
Basal human neutrophils; concentrations up to 1 μM
  activity in assay of neutrophil adhesion: no activity
Basal human neutrophils; concentrations ≦10 μM
  inhibition of neutrophil adhesion, basal conditions: did not inhibit
Human neutrophils
  agonist activity on human neutrophils: no detectable agonist activity
[1]; concentrations of ≦10 μM
  inhibition of fMLP-induced neutrophil aggregation: not active
[1]; concentrations up to 1 μM
  activity in assay of neutrophil aggregation: no activity
[1]
  inhibition of neutrophil aggregation: neither 20-HETE nor 15-HETE inhibited
[7]
  Aggregation (percent of inhibition from HETE untreated cells): 8.1 ± 2.6%

## C(1)-hydroxyl 16-HETE
[1]
  Aggregation (percent of inhibition from HETE untreated cells): 84.6 +/− 11.4%
